The source of these data is ChEMBL document CHEMBL1134164, “Antifungal activity of octyl gallate: structural criteria and mode of action” (2001).

Each structure is given as a SMILES string. Values after ≈ are worked out from the molar mass of the structure shown. Active and inactive are the calls of the source. Some results are limits rather than exact numbers.

Experiment [1] deals with Aspergillus niger. In words: Antifungicidal activity against Aspergillus niger was determined. The class given is functional.
A further experiment relates to Bacillus subtilis. Put plainly: Antimicrobial activity against Bacillus subtilis was determined. The class given is functional.
The test system of experiment [2] is Staphylococcus aureus. In words: Antimicrobial activity against Staphylococcus aureus was determined. The experiment is classed as functional.
Experiment [3] has as its system Staphylococcus aureus. Put plainly: Inhibitory activity against Staphylococcus aureus (MRSA) was determined. The experiment is classed as functional.
Experiment [4] relates to Pseudomonas aeruginosa. In words: Inhibitory activity against Pseudomonas aeruginosa was determined. The class given is functional.
Experiment [5] concerns Klebsiella aerogenes. In words: Antimicrobial activity against Enterobacter aerogenes was determined. The class given is functional.
The test system of experiment [6] is Staphylococcus aureus. In words: Antimicrobial activity against Staphylococcus aureus (MRSA) was determined. The class given is functional.
The subject of experiment [7] is Proteus vulgaris. In words: Antimicrobial activity against Proteus vulgaris was determined. The experiment is classed as functional.
Experiment [8] concerns Corynebacterium ammoniagenes. In words: Antimicrobial activity against Brevibacterium ammoniagenes was determined. The class given is functional.
Experiment [9] relates to Saccharomyces cerevisiae. In words: Antifungicidal activity against Saccharomyces cerevisiae was determined. The class given is functional.
Experiment [10] deals with Escherichia coli. In words: Inhibitory activity against Escherichia coli was determined. The experiment is classed as functional.
In experiment [11] the test system is Candida albicans. Put plainly: Inhibitory activity against Candida albicans was determined. The experiment is classed as functional.
Experiment [12] relates to Klebsiella aerogenes. Put plainly: Inhibitory activity against Enterobacter aerogenes was determined. The experiment is classed as functional.
Experiment [13] deals with Proteus vulgaris. Put plainly: Inhibitory activity against Proteus vulgaris was determined. The experiment is classed as functional.
Experiment [14] deals with Escherichia coli. Put plainly: Antimicrobial activity against Escherichia coli was determined. The experiment is classed as functional.
Experiment [15] has as its system Zygosaccharomyces bailii. In words: Antifungicidal activity against Zygosaccharomyces bailii was determined. The class given is functional.
Experiment [16] deals with Streptococcus mutans. In words: Inhibitory activity against Streptococcus mutans was determined. The experiment is classed as functional.
The subject of experiment [17] is Candida albicans. In words: Antifungicidal activity against Candida albicans was determined. The experiment is classed as functional.
In experiment [18] the test system is Cutibacterium acnes. In words: Antimicrobial activity against Propionibacterium acnes was determined. The experiment is classed as functional.
In experiment [19] the test system is Corynebacterium ammoniagenes. In words: Inhibitory activity against Brevibacterium ammoniagenes was determined. The experiment is classed as functional.
The next experiment concerns Salmonella enterica. Put plainly: Antimicrobial activity against Salmonella choleraesuis was determined. The class given is functional.
Experiment [20] deals with Micrococcus luteus. Put plainly: Antimicrobial activity against Micrococcus luteus was determined. The experiment is classed as functional.
For experiment [21], the system named is Pseudomonas aeruginosa. In words: Antimicrobial activity against Pseudomonas aeruginosa was determined. The class given is functional.
Experiment [22] relates to Staphylococcus aureus. In words: Inhibitory activity against Staphylococcus aureus was determined. The class given is functional.
For experiment [23], the system named is Aspergillus niger. Put plainly: Inhibitory activity against Aspergillus niger was determined. The class given is functional.
The test system of experiment [24] is Micrococcus luteus. Put plainly: Inhibitory activity against Micrococcus luteus was determined. The class given is functional.
Experiment [25] relates to Saccharomyces cerevisiae. In words: Inhibitory activity against Saccharomyces cerevisiae was determined. The class given is functional.
The subject of experiment [26] is Zygosaccharomyces bailii. In words: Inhibitory activity against Zygosaccharomyces bailii was determined. The class given is functional.
Experiment [27] has as its system Streptococcus mutans. In words: Antimicrobial activity against Streptococcus mutans was determined. The experiment is classed as functional.
In experiment [28] the test system is Cutibacterium acnes. Put plainly: Inhibitory activity against Propionibacterium acnes was determined. The class given is functional.
In experiment [29] the test system is Saccharomyces cerevisiae. Put plainly: Minimum fungicidal concentration against Saccharomyces cerevisiae (Inactive). The class given is functional, organism-based.
The test system of experiment [30] is Saccharomyces cerevisiae. In words: Minimum fungicidal concentration against Saccharomyces cerevisiae. The class given is functional.
The test system of experiment [31] is Klebsiella aerogenes. In words: Inhibitory activity against Enterobacter aerogenes was determined.
For experiment [32], the system named is Streptococcus mutans. In words: Inhibitory activity against Streptococcus mutans was determined.
Experiment [33] concerns Escherichia coli. In words: Inhibitory activity against Escherichia coli was determined.
The test system of experiment [34] is Staphylococcus aureus. Put plainly: Inhibitory activity against Staphylococcus aureus was determined.
In experiment [35] the test system is Corynebacterium ammoniagenes. In words: Inhibitory activity against Brevibacterium ammoniagenes was determined.
For experiment [36], the system named is Micrococcus luteus. In words: Inhibitory activity against Micrococcus luteus was determined.

For orientation: MBC means the smallest concentration meeting the test's criterion for killing. A low value points to greater bactericidal potency. A word on the MIC: it is the least concentration at which growth counts as inhibited.

`CCCOC(=O)c1cc(O)c(O)c(O)c1` [PROPYL GALLATE]: the MFC with Aspergillus niger [1] was greater than 3200 µg/mL; against Saccharomyces cerevisiae [9], greater than 3200 µg/mL; in the experiment on Candida albicans [11], 3200 µg/mL (≈ 15100 µM); in the experiment on Zygosaccharomyces bailii [15], greater than 3200 µg/mL; against Candida albicans [17], greater than 3200 µg/mL; with Aspergillus niger [23], greater than 3200 µg/mL. In addition, the MFC in the experiment with Saccharomyces cerevisiae [25] came to 3200 µg/mL (≈ 15100 µM). Further, the MBC was 1600 µg/mL (≈ 7540 µM) against Bacillus subtilis; 3200 µg/mL (≈ 15100 µM) in the experiment with Staphylococcus aureus [2]; greater than 3200 µg/mL with Klebsiella aerogenes [5]; 3200 µg/mL (≈ 15100 µM) against Staphylococcus aureus [6]; 400 µg/mL (≈ 1890 µM) with Proteus vulgaris [7]; 3200 µg/mL (≈ 15100 µM) in experiment [8]. The MBC in the experiment with Escherichia coli [14] was 1600 µg/mL (≈ 7540 µM); against Cutibacterium acnes [18], 800 µg/mL (≈ 3770 µM); with Salmonella enterica, greater than 3200 µg/mL; in the experiment on Micrococcus luteus [20] it was 3200 µg/mL (≈ 15100 µM); in the experiment with Pseudomonas aeruginosa [21], greater than 3200 µg/mL; in the experiment on Streptococcus mutans [27] it was 800 µg/mL (≈ 3770 µM). Also, the MIC against Staphylococcus aureus [3] was 1600 µg/mL (≈ 7540 µM); against Pseudomonas aeruginosa [4], 3200 µg/mL (≈ 15100 µM); in the experiment with Escherichia coli [10], 1600 µg/mL (≈ 7540 µM); with Klebsiella aerogenes [12], 3200 µg/mL (≈ 15100 µM); against Proteus vulgaris [13], 400 µg/mL (≈ 1890 µM); against Streptococcus mutans [16], 400 µg/mL (≈ 1890 µM). The MIC is 1600 µg/mL (≈ 7540 µM) in experiment [19]; 1600 µg/mL (≈ 7540 µM) in the experiment on Staphylococcus aureus [22]; 1600 µg/mL (≈ 7540 µM) against Micrococcus luteus [24]; greater than 3200 µg/mL in the experiment with Zygosaccharomyces bailii [26]; 800 µg/mL (≈ 3770 µM) with Cutibacterium acnes [28].

`CCCCCCCCOC(=O)c1cccc(O)c1O`: the MIC entry in the experiment with Saccharomyces cerevisiae [29] is “inactive”.

Consider `CCCCCCCCOC(=O)c1cc(O)c(O)c(O)c1` [OCTYL_GALLATE], for which the MFC with Aspergillus niger [1] is 100 µg/mL (≈ 354 µM); against Saccharomyces cerevisiae [9], 25 µg/mL (≈ 88.5 µM); in the experiment with Candida albicans [11], 25 µg/mL (≈ 88.5 µM); in the experiment with Zygosaccharomyces bailii [15], 50 µg/mL (≈ 177 µM); against Candida albicans [17], 25 µg/mL (≈ 88.5 µM); against Aspergillus niger [23], 50 µg/mL (≈ 177 µM). In addition, the MFC against Saccharomyces cerevisiae [25] amounted to 25 µg/mL (≈ 88.5 µM). Further, the MBC with Bacillus subtilis was 25 µg/mL (≈ 88.5 µM); in the experiment with Staphylococcus aureus [2] it was 50 µg/mL (≈ 177 µM); with Klebsiella aerogenes [5] it was greater than 800 µg/mL; against Staphylococcus aureus [6] it was 50 µg/mL (≈ 177 µM); in the experiment on Proteus vulgaris [7] it was 50 µg/mL (≈ 177 µM); in experiment [8], 50 µg/mL (≈ 177 µM). For the same compound, the minimum bactericidal concentration (MBC) with Escherichia coli [14] is greater than 800 µg/mL; in the experiment with Cutibacterium acnes [18], 25 µg/mL (≈ 88.5 µM); in the experiment on Salmonella enterica, 12.5 µg/mL (≈ 44.3 µM); against Micrococcus luteus [20], 25 µg/mL (≈ 88.5 µM); in the experiment with Pseudomonas aeruginosa [21] it was greater than 800 µg/mL; in the experiment on Streptococcus mutans [27], 50 µg/mL (≈ 177 µM). Also, the MIC against Staphylococcus aureus [3] is 25 µg/mL (≈ 88.5 µM); against Pseudomonas aeruginosa [4] it was greater than 800 µg/mL; against Escherichia coli [10] it was greater than 800 µg/mL; against Klebsiella aerogenes [12], greater than 800 µg/mL; against Proteus vulgaris [13] it was 25 µg/mL (≈ 88.5 µM); against Streptococcus mutans [16], 50 µg/mL (≈ 177 µM). Besides, the MIC stood at 25 µg/mL (≈ 88.5 µM) in experiment [19]; 25 µg/mL (≈ 88.5 µM) in the experiment with Staphylococcus aureus [22]; 12.5 µg/mL (≈ 44.3 µM) in the experiment on Micrococcus luteus [24]; 50 µg/mL (≈ 177 µM) in the experiment with Zygosaccharomyces bailii [26]; 25 µg/mL (≈ 88.5 µM) in the experiment on Cutibacterium acnes [28].

With `CCCCCCCOC(=O)/C=C/c1ccc(O)c(O)c1`, the MFC in the experiment with Saccharomyces cerevisiae [30] was 50 µg/mL (≈ 180 µM).

For the compound `CCCCCCCCCCCCOC(=O)c1cc(O)c(O)c(O)c1` [DODECYL GALLATE], the MFC was greater than 400 µg/mL in the experiment with Aspergillus niger [1]; greater than 1600 µg/mL against Saccharomyces cerevisiae [9]; greater than 400 µg/mL against Candida albicans [11]; greater than 1600 µg/mL in the experiment on Zygosaccharomyces bailii [15]; greater than 400 µg/mL with Candida albicans [17]; greater than 400 µg/mL with Aspergillus niger [23]. In addition, in the experiment with Saccharomyces cerevisiae [25], the MFC is greater than 1600 µg/mL. For the same compound, the MIC against Klebsiella aerogenes [31] is greater than 800 µg/mL; with Streptococcus mutans [32], 100 µg/mL (≈ 295 µM); against Staphylococcus aureus [3] it was 12.5 µg/mL (≈ 36.9 µM); against Pseudomonas aeruginosa [4], greater than 800 µg/mL; in the experiment on Proteus vulgaris [13] it was greater than 800 µg/mL; in the experiment on Escherichia coli [33], greater than 800 µg/mL. In addition, the MIC in the experiment on Staphylococcus aureus [34] is 12.5 µg/mL (≈ 36.9 µM); in [35] it was 12.5 µg/mL (≈ 36.9 µM); in the experiment on Micrococcus luteus [36] it was 12.5 µg/mL (≈ 36.9 µM); in the experiment on Zygosaccharomyces bailii [26], greater than 1600 µg/mL; against Cutibacterium acnes [28], 6.25 µg/mL (≈ 18.5 µM). The MBC in the experiment with Bacillus subtilis is 25 µg/mL (≈ 73.9 µM); in the experiment on Staphylococcus aureus [2], 25 µg/mL (≈ 73.9 µM); against Klebsiella aerogenes [5] it was greater than 800 µg/mL; against Staphylococcus aureus [6], 25 µg/mL (≈ 73.9 µM); against Proteus vulgaris [7], greater than 800 µg/mL; in experiment [8] it was 25 µg/mL (≈ 73.9 µM). Moreover, the MBC with Escherichia coli [14] was greater than 800 µg/mL; in the experiment with Cutibacterium acnes [18], 6.25 µg/mL (≈ 18.5 µM); against Salmonella enterica it was 50 µg/mL (≈ 148 µM); against Micrococcus luteus [20] it was 25 µg/mL (≈ 73.9 µM); with Pseudomonas aeruginosa [21], greater than 800 µg/mL; against Streptococcus mutans [27], 100 µg/mL (≈ 295 µM).

Consider `CCCCCCCCCC(=O)Oc1ccc(O)c(O)c1`, for which, in the experiment on Saccharomyces cerevisiae [30], the MFC stood at 50 µg/mL (≈ 178 µM).

`CC(C)=CCC/C(C)=C/COC(=O)c1cc(O)c(O)c(O)c1` [Geranyl gallate] showed an MFC against Saccharomyces cerevisiae [30] of 50 µg/mL (≈ 163 µM).
